Values of other authors in US20040248846A1, “Intranasal administration of triptans” (Nastech Pharmaceutical Company Inc., priority 2003, published 2004).
Where two headings read alike, the source gives them in different places.

How the values were obtained:
[1] = single 6 mg subcutaneous dose, 18 healthy males

- mean Cmax (5 mg intranasal dose, 20 females): 5 ng/mL
- mean Cmax (20 mg intranasal dose, 20 females): 16 ng/mL
- mean Cmax (oral dosing with 25 mg): approximately 18 ng/ml
- tmax (oral dosing with 25 mg): approximately 2 hours
- mean Cmax [1]: 74 ± 15 ng/mL
- median tmax [1]: 12 min
SMILES: CNS(=O)(=O)Cc1ccc2[nH]cc(CCN(C)C)c2c1 [sumatriptan]
- efficacy (effective) (patients with migraine; 6 mg subcutaneous dose): ~85%
- Onset of pain relief (patients with migraine; after a nasal dose): 30 min
- Onset of pain relief (patients with migraine; after a subcutaneous dose): 10 to 34 min
